The source of these data is ChEMBL document CHEMBL5143549, “Phenothiazine, anthraquinone and related tricyclic derivatives as inhibitors of monoamine oxidase” (Bioorg Med Chem, 2022).

Assay [1] concerns the target T1, Amine oxidase [flavin-containing] A (Homo sapiens, UniProt P21397).
T1 sequence (P21397 whole entry): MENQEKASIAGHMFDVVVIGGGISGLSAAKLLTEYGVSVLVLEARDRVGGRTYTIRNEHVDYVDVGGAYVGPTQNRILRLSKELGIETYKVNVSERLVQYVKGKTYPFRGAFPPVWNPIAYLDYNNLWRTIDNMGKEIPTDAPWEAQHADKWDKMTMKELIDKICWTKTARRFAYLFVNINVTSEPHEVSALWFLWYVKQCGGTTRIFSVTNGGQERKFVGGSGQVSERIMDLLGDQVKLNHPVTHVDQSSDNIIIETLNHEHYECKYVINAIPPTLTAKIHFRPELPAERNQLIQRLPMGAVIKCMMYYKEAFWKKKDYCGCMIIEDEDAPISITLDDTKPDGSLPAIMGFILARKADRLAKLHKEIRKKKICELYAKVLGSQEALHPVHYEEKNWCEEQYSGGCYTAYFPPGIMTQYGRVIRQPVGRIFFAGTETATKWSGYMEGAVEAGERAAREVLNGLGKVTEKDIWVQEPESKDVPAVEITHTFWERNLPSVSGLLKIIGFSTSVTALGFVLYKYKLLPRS
The experiment in a line: Inhibition of recombinant human MAO-A expressed in baculovirus infected BTI insect cells using kynuramine as substrate after 20 mins by fluorescence spectrophotometric assay.

In assay [2] the target is T2, Amine oxidase [flavin-containing] B (Homo sapiens, UniProt P27338).
T2 sequence (P27338 whole entry): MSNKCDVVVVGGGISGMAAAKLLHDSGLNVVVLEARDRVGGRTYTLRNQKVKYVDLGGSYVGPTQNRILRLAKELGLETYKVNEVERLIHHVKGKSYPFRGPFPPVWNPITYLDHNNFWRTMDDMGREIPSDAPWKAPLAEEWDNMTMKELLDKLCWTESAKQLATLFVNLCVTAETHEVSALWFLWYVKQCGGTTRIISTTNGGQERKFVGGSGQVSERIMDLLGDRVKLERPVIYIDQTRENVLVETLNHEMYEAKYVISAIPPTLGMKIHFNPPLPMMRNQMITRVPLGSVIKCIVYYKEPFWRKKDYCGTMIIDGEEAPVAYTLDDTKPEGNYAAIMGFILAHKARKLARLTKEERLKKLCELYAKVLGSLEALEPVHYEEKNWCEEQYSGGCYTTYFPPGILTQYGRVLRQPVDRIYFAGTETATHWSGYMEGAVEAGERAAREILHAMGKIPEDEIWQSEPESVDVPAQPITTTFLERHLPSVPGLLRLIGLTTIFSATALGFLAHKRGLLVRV
Put plainly: Inhibition of recombinant human MAO-B expressed in baculovirus infected BTI insect cells using kynuramine as substrate after 20 mins by fluorescence spectrophotometric assay.

The species entered for a further assay is Homo sapiens. Put plainly: Selectivity index, ratio IC50 for recombinant human MAO-B to IC50 for recombinant human MAO-A.
Assay [3] addresses T2, Amine oxidase [flavin-containing] B. Put plainly: Inhibition of recombinant human MAO-B expressed in baculovirus infected BTI insect cells using kynuramine as substrate after 20 mins by Lineweaver-Burk plot analysis.
In assay [4] the target is T1, Amine oxidase [flavin-containing] A. The experiment in a line: Inhibition of recombinant human MAO-A expressed in baculovirus infected BTI insect cells using kynuramine as substrate after 20 mins by Lineweaver-Burk plot analysis.

Each structure is given as a SMILES string.

Consider `O=C1c2ccccc2C(=O)c2cnccc21`, for which the figures for the IC50 in assay [1] and in assay [2] were 20.2 µM and 4.28 µM, respectively. Besides, in the assay listed under Homo sapiens, the Ratio IC50 is 0.21.

As to `Clc1c2ccccc2nc2ccccc12`, the IC50 in assay [1] amounted to 12.1 µM; in assay [2], 91.9 µM. For the same molecule, the Ratio IC50 in the assay filed under Homo sapiens amounted to 7.6.

In the case of `CN1c2ccccc2Sc2ccccc21`, the IC50 in assay [1] amounted to 24.9 µM.

As for `Cc1ccc2nc3c(ccc4ccccc43)c(C)c2c1`, the IC50 in assay [1] came to 95.1 µM.

In the case of `CC1(C)CC(=O)C2=C(C1)C(=O)C1=C(C2)C(=O)CC(C)(C)C1`, the IC50 in assay [1] is 51 µM.

On to `Clc1ccc2c(c1)Nc1ccccc1S2`, for which the 50% inhibitory concentration (IC50) in assay [1] is 1.22 µM.

`COc1ccc2c(c1)Sc1ccc(Cl)cc1N2`: the values for the IC50 in assay [1] and in assay [2] were 0.576 µM and 1.34 µM, respectively. Also, the Ki in assay [3] worked out at 0.045 µM.

With `O=C1c2ccccc2C(=O)c2c1ccc1c(=O)c3ccccc3[nH]c21`, the IC50 in assay [1] turned out to be 85.6 µM.

For the molecule `OC1c2ccccc2Oc2ccccc21`, the IC50 in assay [1] was 28.4 µM; in assay [2], 92 µM. In addition, the Ratio IC50 in the assay filed under Homo sapiens worked out at 3.24.

As to `Nc1ccc(N)c2c1C(=O)c1ccccc1C2=O`, the IC50 in assay [1] stood at 1.06 µM.

Turning to `Nc1ccc2c(c1N)C(=O)c1ccccc1C2=O`, the IC50 in assay [1] is 2.28 µM; in assay [2] it was 2.41 µM. For the same molecule, the Ratio IC50 in the assay filed under Homo sapiens came to 1.06.

Regarding `O=C1C(=O)c2ccccc2-c2ccccc21` [9,10-PHENANTHRENEQUINONE], in assay [1], the IC50 turned out to be 1.92 µM.

In the case of `O=C1c2cccc(O)c2C(=O)c2c(O)cc(CO)cc21` [ALOE-EMODIN], the half-inhibitory concentration (IC50) in assay [1] turned out to be 1.77 µM; in assay [2] it was 21.9 µM. In the assay filed under Homo sapiens, the Ratio IC50 came out at 12.4.

As for `Nc1c2ccccc2nc2ccccc12` [AMINACRINE], the concentration for half-maximal inhibition (IC50) came to 26 µM in assay [1] and 112 µM in assay [2]. For the same molecule, the Ratio IC50 in the assay listed under Homo sapiens amounted to 4.31.

Regarding `O=C1c2ccc(O)cc2C(=O)c2ccc(O)cc21` [ANTHRAFLAVICACID], the values for the concentration for half-maximal inhibition (IC50) in assay [1] and in assay [2] were 11.5 µM and 5.62 µM, respectively. Also, the Ratio IC50 in the assay listed under Homo sapiens amounted to 0.49.

For `O=C1c2ccccc2C(=O)c2ccccc21` [ANTHRAQUINONE], the IC50 in assay [1] turned out to be 122 µM.

For `O=C1c2cccc(O)c2C(=O)c2cccc(O)c21` [ANTHRARUFIN], in assay [1], the IC50 is 30.8 µM.

For `O=C1c2ccccc2Cc2ccccc21` [ANTHRONE], in assay [1], the IC50 was determined as 1.89 µM.

As to `Nc1c(C(=O)O)c2nc3c(C(=O)O)cccc3oc-2cc1=O` [CINNABARINIC ACID], the half-maximal inhibitory concentration (IC50) in assay [1] is 45.3 µM; in assay [2], 65 µM. For the same molecule, the Ratio IC50 in the assay listed under Homo sapiens was determined as 1.43.

`O=C1c2cccc(O)c2C(=O)c2c(O)cccc21` [DANTHRON]: the IC50 in assay [1] stood at 10.7 µM; in assay [2] it was 58.7 µM. In addition, in the assay listed under Homo sapiens, the Ratio IC50 turned out to be 5.49.

`Cc1cc(O)c2c(c1)C(=O)c1cc(O)cc(O)c1C2=O` [EMODIN]: the IC50 was determined as 4.32 µM in assay [1] and 3.24 µM in assay [2]. For the same molecule, the Ratio IC50 in the assay filed under Homo sapiens turned out to be 0.75.

As for `O=C1c2ccccc2C(=O)c2c(O)c(O)cc(O)c21` [PURPURIN], the IC50 in assay [1] is 7.99 µM; in assay [2] it was 40.2 µM. Besides, the Ratio IC50 in the assay filed under Homo sapiens is 5.03.

Turning to `O=C1c2ccc(O)c(O)c2C(=O)c2c(O)ccc(O)c21` [QUINALIZARIN], the IC50 in assay [1] came out at 17 µM.

Consider `O=C1c2ccccc2C(=O)c2c(O)ccc(O)c21` [QUINIZARIN], for which the IC50 is 0.065 µM in assay [1] and 110 µM in assay [2]. Moreover, in the assay listed under Homo sapiens, the Ratio IC50 worked out at 1690. For the same molecule, in assay [4], the Ki was found to be 0.039 µM.

Consider `c1ccc2c(c1)Cc1ccccc1O2` [XANTHENE], for which the values for the IC50 in assay [1] and in assay [2] were 24.8 µM and 7.42 µM, respectively. For the same molecule, the Ratio IC50 in the assay filed under Homo sapiens is 0.32.

For the molecule `O=c1c2ccccc2oc2ccccc12` [XANTHONE], the IC50 in assay [1] worked out at 0.623 µM.

One may read the IC50 as the concentration needed to halve the response being measured. The Ki is the dissociation constant of the complex between target and ligand, obtained from inhibition or displacement.
